Patent publication US9278962B2 (Cytokinetics, Inc., priority 2011, dated 2016)

System: rabbit skeletal myofibrils (approximately 90% fast fibers)
Assay: Activation of fast skeletal myofibrils (PUMA coupled-enzyme ATPase assay, AC1.4)
Format: biochemical
Details: concentration at which the compound increased enzymatic activity by 40%, calcium at pCa25

Compound	Mean AC1.4 (Table 2)	other results
Fc1cccnc1C1(CNc2cnc(-c3ccccc3)s2)CCC1 [N-((1-(3-fluoropyridin-2-yl)cyclobutyl)methyl)-2-phenylthiazol-5-amine]		Mean AC1.4 (Table 5): D (D=>20 uM)
CC(C)(CNc1nc(-c2cncc(C#N)c2)ns1)c1ccc(F)cc1 [5-(5-{[2-(4-fluorophenyl)-2-methylpropyl]amino}-1,2,4-thiadiazol-3-yl)pyridine-3-carbonitrile]	B (B=1-10 uM)	
COc1cccc(Cc2nsc(NCCc3cccc(F)c3)n2)c1 [[2-(3-fluorophenyl)ethyl]{3-[(3-methoxyphenyl)methyl](1,2,4-thiadiazol-5-yl)}amine]	C (C=10-20 uM)	
CC(C)(CNc1nc2cc(C#N)ccc2s1)c1ccc(F)cc1 [2-(2-(4-fluorophenyl)-2-methylpropylamino)benzo[d] thiazole-5-carbonitrile]		Mean AC1.4 (Table 4): B (B=1-10 uM)
Cn1nc(-c2cc(Br)ccc2F)nc1NC1(c2ncccc2F)CCC1 [5-(5-bromo-2-fluorophenyl)-N-(1-(3-fluoropyridin-2-yl)cyclobutyl)-2-methyl-2H-1,2,4-triazol-3-amine]		Mean AC1.4 (Table 5): D (D=>20 uM)
Fc1cccnc1C1(CNc2nc3ccccc3s2)CCC1 [N-((1-(3-fluoropyridin-2-yl)cyclobutyl)methyl)benzo[d] thiazol-2-amine]		Mean AC1.4 (Table 4): C (C=10-20 uM)
CC(C)(CNc1nc(CCC(=O)O)ns1)c1ccc(F)cc1 [3-(5-{[2-(4-fluorophenyl)-2-methylpropyl]amino}-1,2,4-thiadiazol-3-yl)propanoic acid]	D (D=>20 uM)	
C[C@H](CNc1nc(-c2ccc(C(N)=O)cc2)ns1)c1ccc(F)cc1 [4-(5-{[(2S)-2-(4-fluorophenyl)propyl]amino}-1,2,4-thiadiazol-3-yl)benzamide]	A (A=<1 uM)	
CC(C)(CNc1nc2c(C#N)cc(C(N)=O)cc2s1)c1ccc(F)cc1 [4-cyano-2-(2-(1-fluorophenyl)-2-methylpropylamino)benzo[d] thiazole-6-carboxamide]		Mean AC1.4 (Table 4): A (A=<1 uM)
CC(C)(Nc1nnc(-c2cc(Br)ccc2F)o1)c1ccc(F)cc1 [5-(5-bromo-2-fluorophenyl)-N-(2-(4-fluorophenyl)propan-2-yl)-1,3,4-oxadiazol-2-amine]		Mean AC1.4 (Table 5): B (B=1-10 uM)
Oc1cccc(Cc2nsc(NCc3ccc(Cl)c(Cl)c3)n2)c1 [3-[(5-{[(3,4-dichlorophenyl)methyl]amino}-1,2,4-thiadiazol-3-yl)methyl]phenol]	D (D=>20 uM)	
Fc1ccc(Cc2nsc(NCCc3ccc(F)c(F)c3)n2)cc1 [[2-(3,4-difluorophenyl)ethyl]{3-[(4-fluorophenyl)methyl](1,2,4-thiadiazol-5-yl)}amine]	C (C=10-20 uM)	
COc1cccc(Cc2nsc(NCCc3ccc4c(c3)OCO4)n2)c1 [(2-(2H-benzo[d]1,3-dioxolan-5-yl)ethyl){3-[(3-methoxyphenyl)methyl](1,2,4-thiadiazol-5-yl)}amine]	D (D=>20 uM)	
Fc1ccc(C2(CNc3nc4ccc(Cl)cc4s3)CCC2)cc1 [6-chloro-N-((1-(4-fluorophenyl)cyclobutyl)methyl) benzo[d]thiazol-2-amine]		Mean AC1.4 (Table 4): A (A=<1 uM)
COCCCc1nsc(NCC(C)(C)c2ccc(F)cc2)n1 [[2-(4-fluorophenyl)-2-methylpropyl][3-(3-methoxypropyl)(1,2,4-thiadiazol-5-yl)]amine]	B (B=1-10 uM)	
CC(C)(Nc1nnc(-c2cc(Br)ccc2F)s1)c1ncccc1F [5-(5-bromo-2-fluorophenyl)-N-(2-(3-fluoropyridin-2-yl)propan-2-yl)-1,3,4-thiadiazol-2-amine]		Mean AC1.4 (Table 3): B (B=1-10 uM)
Fc1cccnc1C1(CNc2nnc(Cc3ccccc3)s2)CCC1 [5-benzyl-N-((1-(3-fluoropyridin-2-yl)cyclobutyl)methyl)-1,3,4-thiadiazol-2-amine]		Mean AC1.4 (Table 3): D (D=>20 uM)
CC(C)Nc1nsc(NCC(C)(C)c2ccc(F)cc2)n1 [[2-(4-fluorophenyl)-2-methylpropyl]{3-[(methylethyl)amino](1,2,4-thiadiazol-5-yl)}amine]	C (C=10-20 uM)	
Fc1ccc(Cc2nsc(Nc3ccc(Cl)c(Cl)c3)n2)cc1 [(3,4-dichlorophenyl){3-[(4-fluorophenyl)methyl](1,2,4-thiadiazol-5-yl)}amine]	D (D=>20 uM)	
CC(C)(CNc1nc(Cc2ccc(F)cc2)ns1)c1ccc(Cl)cc1 [[2-(4-chlorophenyl)-2-methylpropyl]{3-[(4-fluorophenyl)methyl](1,2,4-thiadiazol-5-yl)}amine]	A (A=<1 uM)	
CC(C)(CNc1nc(C(N)=O)ns1)c1ccc(F)cc1 [5-{[2-(4-Fluorophenyl)-2-methylpropyl]amino}-1,2,4-thiadiazole-3-carboxamide]	C (C=10-20 uM)	
NC(=O)c1cccc(-c2nsc(NCC(=O)C3CCCCN3)n2)c1 (stereo not shown) [3-{5-[(2-oxo-2-piperidylethyl)amino]-1,2,4-thiadiazol-3-yl}benzamide]	D (D=>20 uM)	

Compound	Mean AC1.4 (Table 2)	other results
CC(C)(CNc1nc(Cc2cccc(O)c2)ns1)c1ccc(F)cc1 [3-[(5-{[2-(4-fluorophenyl)-2-methylpropyl]amino}-1,2,4-thiadiazol-3-yl)methyl]phenol]	A (A=<1 uM)	
Cc1ccsc1-c1nnc(NC[C@]2(c3ncccc3F)C[C@H](F)C2)s1 [N-(((trans)-3-fluoro-1-(3-fluoropyridin-2-yl)cyclobutyl)methyl)-5-(3-methylthiophen-2-yl)-1,3,4-thiadiazol-2-amine]		Mean AC1.4 (Table 3): B (B=1-10 uM)
Cc1ccc(C(N)=O)cc1-c1nnc(NC[C@]2(c3ncccc3F)C[C@H](F)C2)s1 [3-(5-((3-fluoro-1-(3-fluoropyridin-2-yl)cyclobutyl)methylamino)-1,3,4-thiadiazol-2-yl)-4-methylbenzamide]		Mean AC1.4 (Table 3): A (A=<1 uM)
CC(C)(CNc1nc(CCC(=O)N2CCC(O)CC2)ns1)c1ccc(F)cc1 [3-(5-{[2-(4-fluorophenyl)-2-methylpropyl]amino}(1,2,4-thiadiazol-3-yl))-1-(4-hydroxypiperidyl)propan-1-one]	D (D=>20 uM)	
NC(=O)c1cccc(-c2nsc(NCC(O)c3ccc(F)cc3)n2)c1 (stereo not shown) [3-(5-{[2-(4-fluorophenyl)-2-hydroxyethyl]amino}-1,2,4-thiadiazol-3-yl)benzamide]	D (D=>20 uM)	
COc1cccc(Cc2nsc(N(C)CC(C)(C)c3ccc(F)cc3)n2)c1 [[2-(4-fluorophenyl)-2-methylpropyl]{3-[(3-methoxyphenyl)methyl](1,2,4-thiadiazol-5-yl)}methylamine]	D (D=>20 uM)	
CC(C)(CNc1nc(-c2ccc(C(N)=O)c(F)c2)ns1)c1ccc(F)cc1 [2-fluoro-4-(5-{[2-(4-fluorophenyl)-2-methylpropyl]amino}(1,2,4-thiadiazol-3-yl))benzamide]	A (A=<1 uM)	
NC(=O)c1ccc2nc(NCC3(c4ncccc4F)CCC3)sc2c1 [2-((1-(3-fluoropyridin-2-yl)cyclobutyl)methylamino)benzo[d] thiazole-6-carboxamide]		Mean AC1.4 (Table 4): B (B=1-10 uM)
CC(C)(CNc1nc(CN2CC[C@H](O)C2)ns1)c1ccc(F)cc1 [(3S)-1-[(5-{[2-(4-fluorophenyl)-2-methylpropyl]amino}(1,2,4-thiadiazol-3-yl))methyl]pyrrolidin-3-ol]	D (D=>20 uM)	
COc1cccc(Cc2nsc(NCCc3ccc(F)c(F)c3)n2)c1 [[2-(3,4-difluorophenyl)ethyl]{3-[(3-methoxyphenyl)methyl](1,2,4-thiadiazol-5-yl)}amine]	B (B=1-10 uM)	
CC(C)(CNc1nc(-c2cccc(C(N)=O)c2)ns1)c1ccc(F)cc1 [3-(5-{[2-(4-fluorophenyl)-2-methylpropyl]amino}-1,2,4-thiadiazol-3-yl)benzamide]	A (A=<1 uM)	
C[C@H](CNc1nc(Cc2cccc(O)c2)ns1)c1ccc(F)cc1 [3-[(5-{[(2S)-2-(4-fluorophenyl)propyl]amino}-1,2,4-thiadiazol-3-yl)methyl]phenol]	A (A=<1 uM)	
CC(C)(CNc1nnc(-c2ccc3[nH]nc(N)c3c2)s1)c1ccc(F)cc1 [5-(3-amino-1H-indazol-5-yl)-N-(2-(4-fluorophenyl)-2-methylpropyl)-1,3,4-thiadiazol-2-amine]		Mean AC1.4 (Table 3): A (A=<1 uM)
O=C(Nc1ccn(-c2ccccc2)n1)C1(c2ncccc2F)CCC1 [1-(3-fluoropyridin-2-yl)-N-(1-phenyl-1H-pyrazol-3-yl)cyclobutanecarboxamide]		Mean AC1.4 (Table 5): D (D=>20 uM)
CC(C)(CNc1nc(CCCNC(=O)CN)ns1)c1ccc(F)cc1 [2-amino-N-[3-(5-{[2-(4-fluorophenyl)-2-methylpropyl]amino}(1,2,4-thiadiazol-3-yl))propyl]acetamide]	B (B=1-10 uM)	
NC(=O)c1cc(Cl)c2nc(NCC3(c4ncccc4F)CCC3)sc2c1 [4-chloro-2-((1-(3-fluoropyridin-2-yl)cyclobutyl)methylamino)benzo[d] thiazole-6-carboxamide]		Mean AC1.4 (Table 4): A (A=<1 uM)
Fc1cccnc1C1(CNc2nnc(-c3ccccc3)s2)CCC1 [N-((1-(3-fluoropyridin-2-yl)cyclobutyl)methyl)-5-phenyl-1,3,4-thiadiazol-2-amine]		Mean AC1.4 (Table 3): A (A=<1 uM)
NC(=O)c1cccc(-c2nnc(NC[C@]3(c4ncccc4F)C[C@@H](F)C3)s2)c1 [3-(5-(((cis)-3-fluoro-1-(3-fluoropyridin-2-yl)cyclobutyl)methylamino)-1,3,4-thiadiazol-2-yl)benzamide]		Mean AC1.4 (Table 3): B (B=1-10 uM)
CC(C)(O)/C=C/c1nsc(NCC(C)(C)c2ccc(F)cc2)n1 [(3E)-4-(5-{[2-(4-fluorophenyl)-2-methylpropyl]amino}(1,2,4-thiadiazol-3-yl))-2-methylbut-3-en-2-ol]	B (B=1-10 uM)	
COc1cccc(Cc2nsc(NCCc3cccc(Cl)c3)n2)c1 [[2-(3-chlorophenyl)ethyl]{3-[(3-methoxyphenyl)methyl](1,2,4-thiadiazol-5-yl)}amine]	C (C=10-20 uM)	
CNC(=O)c1cccc(-c2nsc(NCC(C)(C)c3ccc(F)cc3)n2)c1 [[3-(5-{[2-(4-fluorophenyl)-2-methylpropyl]amino}(1,2,4-thiadiazol-3-yl))phenyl]-N-methylcarboxamide]	A (A=<1 uM)	
